Reference: patent US20230115176A1 (Ra Pharmaceuticals, Inc., priority 2019, published 2023)

Tests used:
[1] = molecular target: T1, Human C5 (Homo sapiens, UniProt P01031); assay: Red blood cell (RBC) hemolysis assay, luminescent (Example 13, Table 22); type: cell-based; details: sheep EA cells, […] C5-depleted human serum, 0.5 nM human C5, 1 hour 37° C., luminescence; also: 1.5% C5-depleted human serum
T1 construct: purchased Complement Technology
Excerpt: (§1) Compound CU0136 is a racemic mixture of Compound CU0186 and CU0187. Numbers in parenthesis following compound numbers indicate alternate enantiomers (as distinguished by retention time during chromatographical separation).

[2] = molecular target: human C5 complement protein (Homo sapiens, UniProt P01031); assay: Surface plasmon resonance (SPR), immobilized human C5, 37° C. (Example 12, Table 21); type: binding; details: where a range of compound concentrations were analyzed, the lowest value obtained
Excerpt: as §1

[3] = molecular target: T1, Human C5; assay: Surface plasmon resonance (SPR), compounds on immobilized human C5 (Example 2, Table 5); type: binding; details: lowest value where a range of compound concentrations were analyzed
Method: Surface plasmon resonance (SPR) technology was used to evaluate affinity, specificity, and kinetics of interactions between compounds and complement protein C5 in real time without the need for labeling.
SensiQ FE SPR system (SensiQ Technologies, Oklahoma City, Okla.) was used to provide sensitive and accurate detection of binding of small molecules to the very large C5 protein (MW=195,000 Da). The chip was prepared by preconditioning the sensor according to the protocol of the SensiQ FE using 10 mM HCl, 50 mM NAOH and 0.1% SDS. The sensor chip was activated by using a mixture of fresh EDAC (1-ethyl-3-(-3-dimethylaminopropyl) carbodiimide) (Sigma Co., St. Louis, Mo.) and NHS (N-hydroxy succinimide) (Sigma Co., St. Louis, Mo.). Human C5 was surface immobilized to a Pioneer Biosensor chip via random amine coupling (>12,000 RU) which makes use of the N-terminus and ε-amino groups of lysine residues of the protein ligand. Immobilization was done by injecting 30-40 μg/ml C5 in 10 mM NaAc pH 4.5 onto designated channels at a rate of 10 μL/minute for 12 minutes, targeting RL>12000 RU for small molecules.
Compounds were diluted in DMSO in a format of 100-fold final concentration and 3-fold serial dilution (5 or 6 dilutions). The 100-fold compounds were transferred to one-fold DMSO-free assay buffer in the 96-well test plate. The compound solution was injected at a rate of 60 μL/minute for 30-60 seconds, followed by 60-90 seconds dissociation time, buffer flushing and/or priming. Blank solution (1% DMSO assay buffer) was run for every 6 injections of compounds. Double reference by subtracting both blank channel and reference channel was applied for data processing. Titration of C5 binding compounds to the C5-immobilized biosensor chip surface led to interactions between C5 and potential binders, and the resulting changes of surface refractive index were sensitively measured by the system.
SPR data were analyzed with the managing software provided by SensiQ and equilibrium dissociation constant (KD) values were determined for each compound. Where a range of compound concentrations were analyzed, the lowest value obtained is presented.

[4] = molecular target: purified human C5 (Homo sapiens, UniProt P01031); assay: Red blood cell hemolysis assay, optical, absorbance 412 nm (Example 3, Table 6); type: cell-based; details: antibody-sensitized sheep erythrocytes, 1.5% human C5 depleted sera, 0.5 nM human C5; average where replicates
Chain of purified human C5 (P01031 19-1676): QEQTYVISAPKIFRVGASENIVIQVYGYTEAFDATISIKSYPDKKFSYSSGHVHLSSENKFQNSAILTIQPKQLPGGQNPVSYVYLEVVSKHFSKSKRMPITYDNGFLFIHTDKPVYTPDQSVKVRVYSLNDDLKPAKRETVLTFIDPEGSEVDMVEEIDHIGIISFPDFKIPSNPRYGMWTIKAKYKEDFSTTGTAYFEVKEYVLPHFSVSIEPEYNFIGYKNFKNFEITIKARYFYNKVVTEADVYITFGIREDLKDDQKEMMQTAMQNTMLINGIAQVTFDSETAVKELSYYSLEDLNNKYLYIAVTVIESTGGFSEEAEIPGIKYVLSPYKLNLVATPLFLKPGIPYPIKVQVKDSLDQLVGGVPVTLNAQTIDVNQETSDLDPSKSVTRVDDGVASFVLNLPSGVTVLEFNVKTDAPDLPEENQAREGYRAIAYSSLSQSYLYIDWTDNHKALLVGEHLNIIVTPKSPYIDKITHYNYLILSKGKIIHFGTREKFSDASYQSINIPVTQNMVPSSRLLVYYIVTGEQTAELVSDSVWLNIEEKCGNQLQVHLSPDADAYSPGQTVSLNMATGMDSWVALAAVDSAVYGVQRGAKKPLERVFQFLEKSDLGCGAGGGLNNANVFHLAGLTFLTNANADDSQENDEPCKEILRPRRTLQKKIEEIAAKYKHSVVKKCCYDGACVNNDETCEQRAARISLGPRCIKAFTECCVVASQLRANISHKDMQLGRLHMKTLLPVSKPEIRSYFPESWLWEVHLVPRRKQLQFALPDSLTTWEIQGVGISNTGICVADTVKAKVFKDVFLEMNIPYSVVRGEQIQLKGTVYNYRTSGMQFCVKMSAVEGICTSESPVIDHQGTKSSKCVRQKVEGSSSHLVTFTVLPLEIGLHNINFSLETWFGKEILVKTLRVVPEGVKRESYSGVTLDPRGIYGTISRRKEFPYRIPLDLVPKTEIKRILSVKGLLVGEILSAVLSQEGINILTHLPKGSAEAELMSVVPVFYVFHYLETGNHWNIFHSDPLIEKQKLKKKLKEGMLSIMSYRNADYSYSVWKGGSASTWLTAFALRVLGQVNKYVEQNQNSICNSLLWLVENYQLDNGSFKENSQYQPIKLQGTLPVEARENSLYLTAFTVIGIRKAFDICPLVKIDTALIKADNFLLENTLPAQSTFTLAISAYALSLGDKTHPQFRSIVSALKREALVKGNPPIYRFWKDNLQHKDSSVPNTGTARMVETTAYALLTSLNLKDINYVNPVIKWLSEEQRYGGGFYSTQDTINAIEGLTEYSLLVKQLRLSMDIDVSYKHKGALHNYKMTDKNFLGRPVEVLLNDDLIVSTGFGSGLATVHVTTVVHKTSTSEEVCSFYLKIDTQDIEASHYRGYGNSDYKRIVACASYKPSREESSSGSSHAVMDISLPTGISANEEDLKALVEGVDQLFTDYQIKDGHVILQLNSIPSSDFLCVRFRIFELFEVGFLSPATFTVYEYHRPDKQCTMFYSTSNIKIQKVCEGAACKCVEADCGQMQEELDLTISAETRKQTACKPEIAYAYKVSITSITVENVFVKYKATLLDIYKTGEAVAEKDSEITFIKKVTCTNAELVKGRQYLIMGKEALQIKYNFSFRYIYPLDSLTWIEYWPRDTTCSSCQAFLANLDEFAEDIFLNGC
Method: Experiments were carried out using a red blood cell (RBC) hemolysis assay to assess compound inhibition of RBC lysis. […] The assay was carried out using 1.5% human C5 depleted sera and 0.5 nM purified human C5.
GVB++ buffer (Complement Technology, Tyler, Tex.) was heated at 37° C. for a minimum of 20 minutes. The human C5 depleted sera and purified human C5 were rapidly thawed at 37° C. and then stored on ice or wet ice, respectively. The compound stock (10 mM, DMSO) was serially diluted in 100% DMSO to obtain ten 6-fold dilutions before addition of GVB++. Sera dilution was prepared by adding 5 mL of GVB++ to a 15 mL conical tube, removing 600 μL of the GVB++ and adding 600 μL of the 100% sera. The tube was mixed by inverting three times. A volume of 25 μL of the diluted sera was added to each well so that the final concentration of sera in the well was 1.5%. C5 dilution was prepared by adding 5 mL of GVB++ to a 15 mL conical tube, removing 4 μL of the GVB++ and adding 4 μL of the C5 stock. The tube was mixed by inverting three times. A volume of 25 μL was added to each well so that the final amount of C5 was 0.5 nM in each well. The antibody-sensitized sheep erythrocytes (EAs) were centrifuged at 1,000× gravity at 22° C. for 3 minutes. The supernatant was pipetted off without disrupting the pellet. The pellet was then resuspended in GVB++ with the same volume removed. Resuspended EAs were mixed by gently inverting the tube.
Five controls were run on each plate: (1) EAs only=100 μL EAs+50 μL GVB++ with 4% DMSO+50 μL GVB++; (2) EA+Sera=100 μL EAs+50 μL GVB++ with 4% DMSO+25 μL Sera dilution+25 μL GVB++; (3) EA+C5=100 μL EAs+50 μL GVB++ with 4% DMSO+25 μL C5 dilution+25 μL GVB++; (4) EA+Sera+C5=100 μL EAs+50 μL GVB++ with 4% DMSO+25 μL Sera dilution+25 μL C5; (5) GVB++ Only=200 μL GVB++. Other wells included: GVB++ with 4% DMSO=20 μL DMSO+480 μL GVB++. All samples were analyzed in duplicate. The compound dose response curve was generated using samples prepared with 100 μL EA+50 μL compound dilution+25 μL C5 dilution+25 μL sera dilution.
Test plates were prepared by adding 100 μL of EAs, 50 μL of compound dilution, 25 μL of sera dilution, and 25 μL of C5 dilution to individual wells of a 96-well tissue culture-treated clear microtitre plate (USA Scientific, Ocala, Fla.) and resuspending by pipetting up and down three times. The samples were incubated at 37° C. for one hour. At the completion of the incubation, the plates were centrifuged at 1,000× gravity for 3 minutes. 100 μl of supernatant were transferred to a new plate and the absorbance was read at 412 nm. Data was fit with a log-logit formula producing a dose-response curve and IC50.
“IC50” refers to the half maximal inhibitory concentration, where the value is the concentration of the inhibitor needed to reduce red blood cell hemolysis by half. Where replicate analysis was conducted, average IC50 values are provided along with standard deviation (SD) values.

T1 sequence (P01031 19-1676): as above
Chain of human C5 complement protein (P01031 19-1676): as above

Structure (SMILES)	Kd [2] [nM]	Kd [3] [nM]	IC50 [1] [nM]	IC50 [4] [nM]
CCCCCOc1cc(N2CCN(Cc3ccccc3OC)C2=O)ccc1OC [CU0001]	29.5		35.6	
CCCCCOc1cc(N2CCCN(Cc3cc(F)ccc3OC)C2=O)ccc1OC [CU0003]	14		28.4	
CCCCCOc1cc(N2CCN(Cc3ccc(C(C)(C)O)cc3OC)C2=O)ccc1OC [CU0004]	10.5		12.1	
CCCCCOc1cc(N2CCCN(Cc3ccc(CC(=O)N4CCNC(=O)C4)cc3OC)C2=O)ccc1OC [CU0101]	2.4			
COc1ccc([C@H](CO)NC(=O)Nc2ccc(OC)c(OCCCC(C)C)c2)cc1 [SM0008]		45		176
COc1ccc(NC(=O)NCc2ccnc3[nH]ccc23)cc1OCCCC(C)C [SM0013]		17		327
COc1ccc(NC(=O)N[C@@H](CO)c2ccccc2)cc1C#CCCC(C)C [SM0014]		63		335
COc1ccc(NC(=O)NC(CO)c2cccc(F)c2)cc1OCCCC(C)C (centres unmarked) [SM0018]		114		420
COc1ccc(NC(=O)N[C@@H](CO)c2ccccc2)cc1OCCC1CCCC1 [SM0019]		39		450
COc1ccc(NC(=O)N(C)Cc2ccccc2)cc1OCCCC(C)C [SM0021]		368		533
COc1ccc(NC(=O)NCc2ccc3[nH]ccc3c2)cc1OCCCC(C)C [SM0022]		84		581
COc1ccc(NC(=O)NC(CO)c2ccccc2F)cc1OCCCC(C)C (centres unmarked) [SM0024]		130		614
COc1ccc(NC(=O)N[C@@H](CO)c2ccccc2)cc1OCCCCC(F)(F)F [SM0025]		620		675
COc1ccc(NC(=O)NCc2ccccc2)cc1OCCCC(C)C [SM0026]		97		685
COc1ccc(NC(=O)N2CCC[C@H]2c2ccccc2)cc1OCCCC(C)C [SM0027]		171		697
COc1ccc(NC(=O)NCc2ccncc2)cc1OCCCC(C)C [SM0031]		2700		983
C=CCCOc1cc(NC(=O)N[C@@H](CO)c2ccccc2)ccc1OC [SM0034]		1400		1100
COc1ccc(NC(=O)NC(CO)c2ccccc2C)cc1OCCCC(C)C (centres unmarked) [SM0036]		4300		1240
COc1ccc(NC(=O)NCc2ccsc2)cc1OCCCC(C)C [SM0039]		210		1490
COc1ccc(NC(=O)NC(CO)c2ccccn2)cc1OCCCC(C)C (centres unmarked) [SM0040]		110		1620

Structure (SMILES)	Kd [2] [nM]	Kd [3] [nM]	IC50 [1] [nM]	IC50 [4] [nM]
COc1ncc(NC(=O)N[C@@H](CO)c2ccccc2)cc1OCCCC(C)C [SM0042]		6400		2130
COc1ccc(NC(=O)NCc2cccc3ncccc23)cc1OCCCC(C)C [SM0044]		74		2180
COc1ccc(NC(=O)NCc2ccncc2)cc1C#CCCC(C)C [SM0046]		8600		2240
COc1ccc(NC(=O)NCc2ccc(S(N)(=O)=O)cc2)cc1OCCCC(C)C [SM0048]		7200		2540
COc1ccc(NC(=O)NCc2cccnc2)cc1OCCCC(C)C [SM0049]		4100		2790
COc1ccc(NC(=O)NCc2cccs2)cc1OCCCC(C)C [SM0052]		564		3100
COc1ccc(NC(=O)NCc2ccccc2F)cc1OCCCC(C)C [SM0058]		500		4090
C=C(NC(=O)Nc1ccc(OC)c(OCCCC(C)C)c1)c1ccccc1 [SM0061]		3900		4990
COc1ccc(NC(=O)N[C@@H](COC(C)=O)c2ccccc2)cc1OCCCC(C)C [SM0062]		2000		5650
COc1ccc(NC(=O)NCc2cccc(CN(C)C)c2)cc1OCCCC(C)C [SM0063]		6370		6140
COc1ccc(NC(=O)N[C@@H]2c3ccccc3C[C@@H]2O)cc1OCCCC(C)C [SM0066]		290		6870
CC(C)CCCOc1cccc(NC(=O)N[C@@H](CO)c2ccccc2)c1 [SM0070, 1-[(1R)-2-hydroxy-1-phenyl-ethyl]-3-(3-isohexyloxyphenyl)urea]		4800		8600
COc1ccc(NC(=O)N(C)CC(O)c2ccc(O)cc2)cc1OCCCC(C)C (centres unmarked) [SM0071, 1-[2-hydroxy-2-(4-hydroxyphenyl)ethyl]-3-(3-isohexyloxy-4-methoxy-phenyl)-1-methyl-urea]		2100		8660
COc1ccc(NC(=O)N[C@@H](CO)c2ccccc2)cc1OCCC(C)C [SM0072]		8200		8680
COc1ccc(NC(=O)N[C@@H](CO)c2ccccc2)cc1C(F)(F)F [SM0073]		3200		9260
CC(C)CCCOc1cc(NC(=O)N[C@@H](CO)c2ccccc2)ccc1F [SM0075]		1300		11500
COc1ccc(NC(=O)NCc2cccc(C#N)c2)cc1OCCCC(C)C [SM0076]		9400		11700
COc1ccc(NC(=O)NCc2cnccn2)cc1OCCCC(C)C [SM0080]		144		13000
COc1ccc(NC(=O)NCC(O)c2ccccc2)cc1OCCCC(C)C (centres unmarked) [SM0081]		1600		13000
COc1ccc(NC(=O)N[C@@H](CO)c2ccccc2)cc1OCCOC(C)C [SM0083]		6400		15400

Further lines, with some results ahead:

Kd [2] [nM]	Kd [3] [nM]	Structure (SMILES)	IC50 [1] [nM]	IC50 [4] [nM]
28		CCCCCOc1cc(N2CCCN(Cc3ccnc4c3ccn4C3CCN(C)C3=O)C2=O)ccc1OC (single isomer, unassigned) [CU0039(1)]	30	
6.5		CCCCCOc1cc(N2CCCN(Cc3ccnc4c3ccn4C3CCN(C)C3=O)C2=O)ccc1OC (single isomer, unassigned) [CU0039(2)]	30.1	
83.5		CCCCCOc1cc(N2CCN(Cc3cc(F)ccc3OC)C2=O)ccc1OC [CU0002]	42	
6.5		CCCCCOc1cc(N2CCCN(Cc3ccc(CCC(=O)N(CC)CC)cc3OC)C2=O)ccc1OC [CU0008]	62.9	
	647	COc1ccc(NC(=O)N[C@@H](C)c2ccccc2)cc1OCCCC(C)C [SM0009]		198
	107	COc1ccc(NC(=O)N[C@@H](CO)c2ccccc2)cc1CCCCC(C)C [SM0010]		226
	196	COc1ccc(NC(=O)NCc2ccc(O)c(O)c2)cc1OCCCC(C)C [SM0015]		342
	290	COc1ccc(NC(=O)NCc2cccc(O)c2)cc1OCCCC(C)C [SM0016]		378
	111	COc1ccc(NC(=O)NCc2ccc(O)cc2)cc1OCCCC(C)C [SM0017]		401
	92	COc1ccc(NC(=O)N[C@@H](CO)c2ccc(F)cc2)cc1OCCCC(C)C [SM0023]		608
	239	COc1ccc(NC(=O)NC(CO)c2ccccc2F)cc1CCCCC(C)C (centres unmarked) [SM0029]		901
	190	COc1cc(CNC(=O)Nc2ccc(OC)c(OCCCC(C)C)c2)ccc1O [SM0030]		936
	25	COc1ccc(NC(=O)NC(CO)c2ccco2)cc1OCCCC(C)C (centres unmarked) [SM0032]		1040
	410	COc1ccc(NC(=O)N[C@@H](CO)c2ccccc2)cc1OCCCCCC(C)C [SM0033]		1100
	628	COc1ccc(NC(=O)NC(C)c2cccnc2)cc1OCCCC(C)C (centres unmarked) [SM0037]		1320
	800	COc1ccc(NC(=O)N[C@@H](CO)c2ccccc2)cc1OCC(C)CC(C)C (some centres unmarked) [SM0038]		1480

Kd [2] [nM]	Kd [3] [nM]	Structure (SMILES)	IC50 [1] [nM]	IC50 [4] [nM]
	1930	COc1ccc(NC(=O)NCc2ccc(CN(C)C)cc2)cc1OCCCC(C)C [SM0043]		2140
	2800	COc1ccc(NC(=O)NCc2ccccn2)cc1OCCCC(C)C [SM0045]		2230
	830	COc1cccc(CNC(=O)Nc2ccc(OC)c(OCCCC(C)C)c2)c1 [SM0047]		2270
	102	COc1ccc(NC(=O)NCc2ccccc2CO)cc1OCCCC(C)C [SM0050]		2870
	3350	COc1ccc(NC(=O)N[C@@H](CO)c2ccccc2)cc1OCCOC1CCC1 [SM0053]		3380
	5300	COc1ccc(NC(=O)N(CCO)c2ccccc2)cc1OCCCC(C)C [SM0057]		4050
	113	COc1ccc(NC(=O)NCc2cscn2)cc1OCCCC(C)C [SM0059]		4390
	6610	COc1ccc(NC(=O)NC(CCO)c2ccccc2)cc1OCCCC(C)C (centres unmarked) [SM0064]		6450
	1600	COc1ccc(NC(=O)NCc2ccc3nccn3c2)cc1OCCCC(C)C [SM0065]		6670
	172	COc1ccc(NC(=O)NCc2ccccc2C#N)cc1OCCCC(C)C [SM0067]		7360
	2600	COc1ccc(NC(=O)N[C@@H](COC(N)=O)c2ccccc2)cc1OCCCC(C)C [SM0068, (R)-2-(3-(4-methoxy-3-((4-methylpentyl)oxyureido)-2-phenylethyl carbamate]		7360
	140	COc1ccc(NC(=O)Nc2ccccc2O)cc1OCCCC(C)C [SM0069]		7720
	3600	COc1ccc(NC(=O)NCC(O)c2ccc(O)cc2)cc1OCCCC(C)C (centres unmarked) [SM0074]		9360
	3600	COc1ccc(NC(=O)NCC(O)c2ccccn2)cc1OCCCC(C)C (centres unmarked) [SM0078]		12600
	310	COCCCOc1cc(NC(=O)N[C@@H](CO)c2ccccc2)ccc1OC [SM0084]		16100
	9900	CCCCCc1cccc(NC(=O)N[C@@H](CO)c2ccccc2)c1 [SM0087]		16700
